Measurements taken from patent US11045482B2, “Use of glucocorticoid receptor modulators in the treatment of catecholamine-secreting tumors” (Corcept Therapeutics, Inc., priority 2017, dated 2021).

Columns and labels:
[1] = test system: metastatic or unresectable catecholamine-secreting tumor; assay: Patient with metastatic or unresectable catecholamine-secreting tumor: blood catecholamine level after five weeks of treatment (Examples 2-77); type: in vivo, human
Method: A patient having a metastatic or unresectable catecholamine-secreting tumor, who is not in need of treatment with a glucocorticoid receptor antagonist, and is not receiving exogenous glucocorticoid receptor agonist treatment, is administered an effective amount of mifepristone at a daily dose of 50 mg/kg/day.
A patient having a metastatic or unresectable catecholamine-secreting tumor, who is not in need of treatment with a glucocorticoid receptor antagonist, and is not receiving exogenous glucocorticoid receptor agonist treatment, is administered an effective amount of mifepristone at a daily dose of 20 mg/kg/day.
A patient having a metastatic or unresectable catecholamine-secreting tumor, who is not in need of treatment with a glucocorticoid receptor antagonist, and is not receiving exogenous glucocorticoid receptor agonist treatment, is administered an effective amount of mifepristone at a daily dose of 15 mg/kg/day.
A patient having a metastatic or unresectable catecholamine-secreting tumor, who is not in need of treatment with a glucocorticoid receptor antagonist, and is not receiving exogenous glucocorticoid receptor agonist treatment, is administered an effective amount of mifepristone at a daily dose of 10 mg/kg/day.
A patient having a metastatic or unresectable catecholamine-secreting tumor, who is not in need of treatment with a glucocorticoid receptor antagonist, and is not receiving exogenous glucocorticoid receptor agonist treatment, is administered an effective amount of mifepristone at a daily dose of 5 mg/kg/day.
A patient having a metastatic or unresectable catecholamine-secreting tumor, who is not in need of treatment with a glucocorticoid receptor antagonist, and is not receiving exogenous glucocorticoid receptor agonist treatment, is administered an effective amount of mifepristone at a daily dose of 50 mg/kg/day, and is also administered chemotherapy.
A patient having a metastatic or unresectable catecholamine-secreting tumor, who is not in need of treatment with a glucocorticoid receptor antagonist, and is not receiving exogenous glucocorticoid receptor agonist treatment, is administered an effective amount of mifepristone at a daily dose of 20 mg/kg/day, and is also administered chemotherapy.
A patient having a metastatic or unresectable catecholamine-secreting tumor, who is not in need of treatment with a glucocorticoid receptor antagonist, and is not receiving exogenous glucocorticoid receptor agonist treatment, is administered an effective amount of mifepristone at a daily dose of 15 mg/kg/day, and is also administered chemotherapy.
A patient having a metastatic or unresectable catecholamine-secreting tumor, who is not in need of treatment with a glucocorticoid receptor antagonist, and is not receiving exogenous glucocorticoid receptor agonist treatment, is administered an effective amount of mifepristone at a daily dose of 10 mg/kg/day, and is also administered chemotherapy.
A patient having a metastatic or unresectable catecholamine-secreting tumor, who is not in need of treatment with a glucocorticoid receptor antagonist, and is not receiving exogenous glucocorticoid receptor agonist treatment, is administered an effective amount of mifepristone at a daily dose of 5 mg/kg/day, and is also administered chemotherapy.
A patient having a metastatic or unresectable catecholamine-secreting tumor, who is not in need of treatment with a glucocorticoid receptor antagonist, and is not receiving exogenous glucocorticoid receptor agonist treatment, is administered an effective amount of mifepristone at a daily dose of 50 mg/kg/day, and is also administered an adrenergic antagonist. […]

[2] = test system: rat phenylethanolamine N-methyltransferase (PNMT) gene promoter; details: RU486 10 μM; cited from earlier work
[3] = test system: metastatic pheochromocytoma associated with ectopic ACTH secretion; assay: Case of a person with metastatic pheochromocytoma and Cushing syndrome given mifepristone (Example 1); type: in vivo, human
Method: A person with metastatic pheochromocytoma associated with ectopic ACTH secretion unresponsive to conventional chemotherapy with CVD (cyclophosphamide, vincristine and dacarbazine) and Sunitinib (tyrosine kinase inhibitors) was enrolled in a phase 2 study with a somatostatin analog. […] At the same time the diagnosis of Cushing syndrome was made and 300 mg of Mifepristone was added to their regimen and the dose was further increased to 600 mg daily two weeks later. […] The plasma epinephrine level after 2 weeks of therapy with mifepristone was decreased by 50%, and the plasma metanephrine level was decreased by 25% after 9 weeks of therapy.

[4] = after 3 months of therapy with mifepristone
[5] = one week after the discontinuation of mifepristone

Compound: CC#C[C@]1(O)CC[C@H]2[C@@H]3CCC4=CC(=O)CCC4=C3[C@@H](c3ccc(N(C)C)cc3)C[C@@]21C [mifepristone, 11β-(4-dimethylaminophenyl)-17β-hydroxy-17α-(1-propynyl)-estra-4,9-dien-3-one]
- blood level of a catecholamine after five weeks of treatment as compared to the initial level ([1]; daily dose of 1 mg/kg/day, also administered somatostatin): lower
- blood level of a catecholamine after five weeks of treatment as compared to the initial level ([1]; daily dose of 5 mg/kg/day): lower
- blood level of a catecholamine after five weeks of treatment as compared to the initial level ([1]; daily dose of 5 mg/kg/day, also administered a somatostatin analog): lower
- blood level of a catecholamine after five weeks of treatment as compared to the initial level ([1]; daily dose of 5 mg/kg/day, also administered an adrenergic antagonist): lower
- blood level of a catecholamine after five weeks of treatment as compared to the initial level ([1]; daily dose of 5 mg/kg/day, also administered chemotherapy): lower
- blood level of a catecholamine after five weeks of treatment as compared to the initial level ([1]; daily dose of 5 mg/kg/day, also administered somatostatin): lower
- blood level of a catecholamine after five weeks of treatment as compared to the initial level ([1]; daily dose of 5 mg/kg/day, also receives Peptide Receptor Radionuclide Therapy): lower
- blood level of a catecholamine after five weeks of treatment as compared to the initial level ([1]; daily dose of 10 mg/kg/day): lower
- blood level of a catecholamine after five weeks of treatment as compared to the initial level ([1]; daily dose of 10 mg/kg/day, also administered a somatostatin analog): lower
- blood level of a catecholamine after five weeks of treatment as compared to the initial level ([1]; daily dose of 10 mg/kg/day, also administered an adrenergic antagonist): lower
- blood level of a catecholamine after five weeks of treatment as compared to the initial level ([1]; daily dose of 10 mg/kg/day, also administered chemotherapy): lower
- blood level of a catecholamine after five weeks of treatment as compared to the initial level ([1]; daily dose of 10 mg/kg/day, also administered somatostatin): lower
- blood level of a catecholamine after five weeks of treatment as compared to the initial level ([1]; daily dose of 10 mg/kg/day, also receives Peptide Receptor Radionuclide Therapy): lower
- blood level of a catecholamine after five weeks of treatment as compared to the initial level ([1]; daily dose of 15 mg/kg/day): lower
- blood level of a catecholamine after five weeks of treatment as compared to the initial level ([1]; daily dose of 15 mg/kg/day, also administered a somatostatin analog): lower
- blood level of a catecholamine after five weeks of treatment as compared to the initial level ([1]; daily dose of 15 mg/kg/day, also administered chemotherapy): lower
- blood level of a catecholamine after five weeks of treatment as compared to the initial level ([1]; daily dose of 15 mg/kg/day, also receives Peptide Receptor Radionuclide Therapy): lower
- blood level of a catecholamine after five weeks of treatment as compared to the initial level ([1]; daily dose of 20 mg/kg/day): lower
- blood level of a catecholamine after five weeks of treatment as compared to the initial level ([1]; daily dose of 20 mg/kg/day, also administered a somatostatin analog): lower
- blood level of a catecholamine after five weeks of treatment as compared to the initial level ([1]; daily dose of 20 mg/kg/day, also administered an adrenergic antagonist): lower
- blood level of a catecholamine after five weeks of treatment as compared to the initial level ([1]; daily dose of 20 mg/kg/day, also administered an adrenergic antagonist and Peptide Receptor Radionuclide Therapy): lower
- blood level of a catecholamine after five weeks of treatment as compared to the initial level ([1]; daily dose of 20 mg/kg/day, also administered chemotherapy): lower
- blood level of a catecholamine after five weeks of treatment as compared to the initial level ([1]; daily dose of 20 mg/kg/day, also administered chemotherapy and a somatostatin analog): lower
- blood level of a catecholamine after five weeks of treatment as compared to the initial level ([1]; daily dose of 20 mg/kg/day, also administered chemotherapy and an adrenergic antagonist): lower
- blood level of a catecholamine after five weeks of treatment as compared to the initial level ([1]; daily dose of 20 mg/kg/day, also administered chemotherapy and somatostatin): lower
- blood level of a catecholamine after five weeks of treatment as compared to the initial level ([1]; daily dose of 20 mg/kg/day, also administered somatostatin): lower
- blood level of a catecholamine after five weeks of treatment as compared to the initial level ([1]; daily dose of 20 mg/kg/day, also receives Peptide Receptor Radionuclide Therapy): lower
- blood level of a catecholamine after five weeks of treatment as compared to the initial level ([1]; daily dose of 50 mg/kg/day): lower
- blood level of a catecholamine after five weeks of treatment as compared to the initial level ([1]; daily dose of 50 mg/kg/day, also administered an adrenergic antagonist): lower
- blood level of a catecholamine after five weeks of treatment as compared to the initial level ([1]; daily dose of 50 mg/kg/day, also administered chemotherapy): lower
- blood level of a catecholamine after five weeks of treatment as compared to the initial level ([1]; single pharmaceutical composition comprising 50 mg mifepristone and a somatostatin analog, daily for five weeks): lower
- blood level of a catecholamine after five weeks of treatment as compared to the initial level ([1]; single pharmaceutical composition comprising 50 mg mifepristone and an adrenergic antagonist, daily for five weeks, also chemotherapy): lower
- blood level of a catecholamine after five weeks of treatment as compared to the initial level ([1]; single pharmaceutical composition comprising 50 mg mifepristone and somatostatin, daily for five weeks): lower
- blood level of a catecholamine after five weeks of treatment as compared to the initial level ([1]; single pharmaceutical composition comprising 100 mg mifepristone and a somatostatin analog, daily for five weeks): lower
- blood level of a catecholamine after five weeks of treatment as compared to the initial level ([1]; single pharmaceutical composition comprising 100 mg mifepristone and an adrenergic antagonist, daily for five weeks): lower
- blood level of a catecholamine after five weeks of treatment as compared to the initial level ([1]; single pharmaceutical composition comprising 100 mg mifepristone and an adrenergic antagonist, daily for five weeks, also chemotherapy): lower
- blood level of a catecholamine after five weeks of treatment as compared to the initial level ([1]; single pharmaceutical composition comprising 100 mg mifepristone and somatostatin, daily for five weeks): lower
- blood level of a catecholamine after five weeks of treatment as compared to the initial level ([1]; single pharmaceutical composition comprising 300 mg mifepristone and a somatostatin analog, daily for five weeks): lower
- blood level of a catecholamine after five weeks of treatment as compared to the initial level ([1]; single pharmaceutical composition comprising 300 mg mifepristone and an adrenergic antagonist, daily for five weeks): lower
- blood level of a catecholamine after five weeks of treatment as compared to the initial level ([1]; single pharmaceutical composition comprising 300 mg mifepristone and an adrenergic antagonist, daily for five weeks, also chemotherapy): lower
- blood level of a catecholamine after five weeks of treatment as compared to the initial level ([1]; single pharmaceutical composition comprising 300 mg mifepristone and somatostatin, daily for five weeks): lower
- inhibition of dexamethasone (1 μM) activation of the PNMT promoter [2]: fully inhibited
- plasma epinephrine level decreased by ([3]; after 2 weeks of therapy with mifepristone (300 mg)): 50%
- metanephrine level [3, 4]: slightly elevated
- symptoms of catecholamine excess [3, 4]: controlled
- adverse event ([3]; after 3 months of therapy, mifepristone temporarily withheld): vaginal bleeding
- plasma metanephrine level decreased by ([3]; after 9 weeks of therapy (300 mg, increased to 600 mg daily two weeks later)): 25%
- metanephrine measurement after discontinuation compared to the level during mifepristone dosing [3, 5]: fourfold increase
- symptoms of catecholamine excess after discontinuation [3, 5]: worse symptoms of catecholamine excess
- symptoms related to cortisol excess as well as to catecholamine excess ([3]; one week after the institution of mifepristone (300 mg), added to somatostatin analog, atenolol, phenoxybenzamine): dramatic improvement
